Reference: US11331327B2, “Antibacterial use of halogenated salicylanilides” (UNION therapeutics A/S, priority 2014, dated 2022)
Where two headings read alike, the source gives them in different places.

Test system: S. aureus clinical isolates and S. aureus ATCC 29213
Assay: MIC assay according to CLSI criteria, Example 2, S. aureus strains
Format: cell-based, Staphylococcus aureus
Conditions: Staphylococcus aureus, read-out: MIC
Description: Strains were conserved in Luria Bertani (LB) Broth (S. aureus) or Brain Heart Infusion (BHI) (S. pyogenes) supplemented with glycerol 15% (v/v) at −80° C., and reactivated by isolation on LB (S. aureus) or BHI (S. pyogenes) agar plates. Strains were cultivated in Mueller Hinton (MH) Broth-cation adjusted (S. aureus) or BHI (S. pyogenes). All strains were cultivated aerobically (microaerobically for S. pyogenes strains) at 37° C.
Bacterial cultures were stopped in their exponential growth phase and plates were inoculated with the approximate concentration of 5×10^5 cells per well. Plates were incubated at 37° C. for 18 hours (S. aureus) or 24 hours (S. pyogenes).

Measured: MIC

C/C(=C\C(=O)OCCCCCCCCC(=O)O)C[C@@H]1OC[C@H](C[C@@H]2O[C@H]2[C@@H](C)[C@H](C)O)[C@@H](O)[C@H]1O [Mupirocin]
0.25 µg/mL: ATCC29213, strain 9-1862936 | ATCC29213, strain 9-2642158 | ATCC29213, strain 9-2955245 | ATCC29213, strain 9-26422166 | ATCC29213, strain 000040C | ATCC29213, strain 000041C | ATCC29213, strain 114660U | ATCC29213, strain 115242C | ATCC29213, strain 115263C | ATCC29213, strain 115273C | ATCC29213, strain 115295C | ATCC29213, strain 115303C | ATCC29213, strain 115427C | ATCC29213, strain 115445C | ATCC29213, strain 115628T | ATCC29213, strain 115691T | ATCC29213, strain 115740E | ATCC29213, strain 115810E | ATCC29213, strain E5-1030440 | ATCC29213, strain E5-1030469 | ATCC29213, strain E5-1030482 | ATCC29213, strain E5-1033076 (first line, r202) | ATCC29213, strain E5-1033076 (second line, r203) | ATCC29213, strain E5-1033088 | ATCC29213, strain E5-1033091 | ATCC29213, strain E5-1035284 | ATCC29213, strain E5-1035775 | ATCC29213, strain E5-1037971 | ATCC29213, strain E5-1038279 | ATCC29213, strain E5-1038294 | ATCC29213, strain E5-1039684 | ATCC29213, strain E5-1039697 | ATCC29213, strain E5-1041980 | ATCC29213, strain E5-1041987 | ATCC29213, strain E5-1043668 | ATCC29213, strain E5-1045179 | ATCC29213, strain E5-1046019 | ATCC29213, strain E5-1046020 | ATCC29213, strain E5-1046039 | ATCC29213, strain E5-1046074 | ATCC29213, strain E5-1046297 | ATCC29213, strain E5-1046298 | ATCC29213, strain E5-1046723 | ATCC29213, strain E5-1047585 | ATCC29213, strain E5-1048204 | ATCC29213, strain E5-1048428 | ATCC29213, strain E5-1048654 | ATCC29213, strain K000864 | ATCC29213, strain K115688 | ATCC29213, strain K115689 | ATCC 29213 / MRSA, strain MRSA 01 | ATCC 29213 / MRSA, strain MRSA 02 | ATCC 29213 / MRSA, strain MRSA 03 | ATCC 29213 / MRSA, strain MRSA 04 | ATCC 29213 / MRSA, strain MRSA 06 | ATCC 29213 / MRSA, strain MRSA 07 | ATCC 29213 / MRSA, strain MRSA 09 | ATCC 29213 / MRSA, strain MRSA 10 | ATCC 29213 / MRSA, strain MRSA 13 | ATCC 29213 / MRSA, strain MRSA 15 | ATCC 29213 / MRSA, strain MRSA 19 | ATCC 29213 / MRSA, strain MRSA 20 | ATCC 29213 / MRSA, strain MRSA 22 | ATCC 29213 / MRSA, strain MRSA 23 | ATCC 29213 / MRSA, strain MRSA 24 | ATCC 29213 / MRSA, strain MRSA 25 | ATCC 29213 / MRSA, strain MRSA 27 | ATCC 29213 / MRSA, strain MRSA 27b | ATCC 29213 / MRSA, strain MRSA 29 | ATCC 29213 / MRSA, strain MRSA 31 | ATCC 29213 / MRSA, strain MRSA 32 | ATCC 29213 / MRSA, strain MRSA 33 | ATCC 29213 / MRSA, strain MRSA 34 | ATCC 29213 / MRSA, strain MRSA 36 | ATCC 29213 / MRSA, strain MRSA 37 | ATCC 29213 / MRSA, strain MRSA 39 | ATCC 29213 / MRSA, strain MRSA 40 | ATCC 29213 / MRSA, strain MRSA 42 | ATCC 29213 / MRSA, strain MRSA 43 | ATCC 29213 / MRSA, strain MRSA 44 | ATCC 29213 / MRSA, strain MRSA 47 | ATCC 29213 / MRSA, strain MRSA 49 | ATCC 29213 / MRSA, strain MRSA 50 | ATCC 29213 / MRSA, strain MRSA 51 | ATCC 29213 / MRSA, strain MRSA 52 | ATCC 29213 / MRSA, strain MRSA 53 | ATCC 29213 / MRSA, strain MRSA 54 | ATCC 29213 / MRSA, strain MRSA 55 | ATCC 29213 / MRSA, strain MRSA 56 | ATCC 29213 / MRSA, strain MRSA 60 | ATCC 29213 / MRSA, strain MRSA 61 | ATCC 29213 / MRSA, strain MRSA 62 | ATCC 29213 / MRSA, strain MRSA 64 | ATCC 29213 / MRSA, strain MRSA 65 | ATCC 29213 / MRSA, strain MRSA 66 | ATCC 29213 / MRSA, strain MRSA 68 | ATCC 29213 / MRSA, strain MRSA 70 | ATCC 29213 / MRSA, strain MRSA 72 | ATCC 29213 / MRSA, strain MRSA 73 | ATCC 29213 / MRSA, strain MRSA 74 | ATCC 29213 / MRSA, strain MRSA 76 | ATCC 29213 / MRSA, strain MRSA 77 | ATCC 29213 / MRSA, strain MRSA 78 | ATCC 29213 / MRSA, strain MRSA 79 | ATCC 29213 / MRSA, strain MRSA 80 | ATCC 29213 / MRSA, strain MRSA 81 | ATCC 29213 / MRSA, strain MRSA 82 | ATCC 29213 / MRSA, strain MRSA 83 | ATCC 29213 / MRSA, strain MRSA 84 | ATCC 29213 / MRSA, strain MRSA 85 | ATCC 29213 / MRSA, strain MRSA 86 | ATCC 29213 / MRSA, strain MRSA 87 | ATCC 29213 / MRSA, strain MRSA 88 | ATCC 29213 / MRSA, strain MRSA 89 | ATCC 29213 / MRSA, strain MRSA 90 | ATCC 29213 / MRSA, strain MRSA 91 | ATCC 29213 / MRSA, strain MRSA 92 | ATCC 29213 / MRSA, strain MRSA 93 | ATCC 29213 / MRSA, strain MRSA 94 | ATCC 29213 / MRSA, strain MRSA 95 | ATCC 29213 / MRSA, strain MRSA 97 | ATCC 29213 / MRSA, strain MRSA 101 | ATCC 29213 / MRSA, strain MRSA 102 | ATCC 29213 / MRSA, strain MRSA 103 | ATCC 29213 / MRSA, strain MRSA 104 | ATCC 29213 / MRSA, strain MRSA 105 | ATCC 29213 / MRSA, strain MRSA 106 | ATCC 29213 / MRSA, strain MRSA 107 | ATCC 29213 / MRSA, strain MRSA 108 | ATCC 29213 / MRSA, strain MRSA 109 | ATCC 29213 / MRSA, strain MRSA 111 | ATCC 29213 / MRSA, strain MRSA 112 | ATCC 29213 / MRSA, strain MRSA 113 | ATCC 29213 / NEWMAN, strain Newman
0.125 µg/mL: ATCC29213, strain 115370U | ATCC29213, strain 115690C | ATCC29213, strain ATCC 29213 | ATCC29213, strain EEFIC 01 | ATCC29213, strain EEFIC 02 | ATCC29213, strain K000772 | ATCC 29213 / MRSA, strain MRSA 05 | ATCC 29213 / MRSA, strain MRSA 12 | ATCC 29213 / MRSA, strain MRSA 14 | ATCC 29213 / MRSA, strain MRSA 18 | ATCC 29213 / MRSA, strain MRSA 21 | ATCC 29213 / MRSA, strain MRSA 30 | ATCC 29213 / MRSA, strain MRSA 38 | ATCC 29213 / MRSA, strain MRSA 41 | ATCC 29213 / MRSA, strain MRSA 57 | ATCC 29213 / MRSA, strain MRSA 58 | ATCC 29213 / MRSA, strain MRSA 59 | ATCC 29213 / MRSA, strain MRSA 63 | ATCC 29213 / MRSA, strain MRSA 67 | ATCC 29213 / MRSA, strain MRSA 69 | ATCC 29213 / MRSA, strain MRSA 71 | ATCC 29213 / MRSA, strain MRSA 96 | ATCC 29213 / MRSA, strain MRSA 110 | ATCC 29213 / MSSA, strain MSSA 01 | ATCC 29213 / MSSA, strain MSSA 02
> 16 µg/mL: ATCC 29213 / MRSA, strain MRSA 08 | ATCC 29213 / MRSA, strain MRSA 16 | ATCC 29213 / MRSA, strain MRSA 17
1 µg/mL: ATCC29213, strain E5-1046296
0.5 µg/mL: ATCC29213, strain 9-2625962 | ATCC29213, strain 000274T | ATCC29213, strain 115015T | ATCC29213, strain 115268C | ATCC29213, strain 115561C | ATCC29213, strain 115584D | ATCC29213, strain 115903T | ATCC29213, strain 116122T | ATCC29213, strain E5-1029252 | ATCC29213, strain E5-1029558 | ATCC29213, strain E5-1030472 | ATCC29213, strain E5-1035277 | ATCC29213, strain E5-1035779 | ATCC29213, strain E5-1037958 | ATCC29213, strain E5-1038286 | ATCC29213, strain E5-1041977 | ATCC29213, strain E5-1041979 | ATCC29213, strain E5-1043184 | ATCC29213, strain E5-1046070 | ATCC29213, strain E5-1046085 | ATCC29213, strain E5-1046096 | ATCC29213, strain E5-1047606 | ATCC29213, strain E5-1047924 | ATCC29213, strain E5-1048670 | ATCC29213, strain K000796 | ATCC29213, strain K000863 | ATCC29213, strain K000866 | ATCC29213, strain K115498 | ATCC29213, strain R000019 | ATCC29213, strain R000020 | ATCC29213, strain R000024 | ATCC29213, strain U115579 | ATCC 29213 / MRSA, strain MRSA 11 | ATCC 29213 / MRSA, strain MRSA 26 | ATCC 29213 / MRSA, strain MRSA 28 | ATCC 29213 / MRSA, strain MRSA 35 | ATCC 29213 / MRSA, strain MRSA 75 | ATCC 29213 / MRSA, strain MRSA 98 | ATCC 29213 / MRSA, strain MRSA 99 | ATCC 29213 / MRSA, strain MRSA 100
0.13 µg/mL: ATCC 29213 / MRSA, strain MRSA 45 | ATCC 29213 / MRSA, strain MRSA 46 | ATCC 29213 / MRSA, strain MRSA 48
